{"source": "patent US11596652B2", "about": "“Early apoptotic cells for use in treating sepsis” (ENLIVEX THERAPEUTICS LTD., priority 2015, dated 2023)", "key": {"[1]": {"tested_on": "CLP-induced sepsis", "test": "Cecal ligation puncture (CLP) mouse model for sepsis: survival, weight and MSS clinical score", "format": "in vivo", "from_the_text": "The cecal ligation puncture (CLP) model has been proposed to more closely replicate the nature and course of clinical sepsis in humans, as compared to other models, and is considered by many researchers as the gold-standard animal model of sepsis. The CLP model involves the ligation of the cecum, usually below the ileocecal junction (to prevent bowel obstruction), and at least one centimeter above the distal end of the cecum, otherwise the sepsis induced is very mild. The length of ligated cecum, defined as the distance from the distal end of the cecum to the ligation point, determines the severity of the sepsis induced. Following ligation, the cecum is perforated, and this step too can be adjusted to modulate the severity of the sepsis ensuing. The perforation of the cecum is followed by the release of fecal material into the peritoneal cavity to induce a polymicrobial infection, which results in an exacerbated immune response. The benefits of the CLP model are its reproducibility and potential to alter the severity of sepsis by controlling needle size, number of cecal punctures, and antibiotics utilization.\nThe study reported here summarizes the effect of apoptotic cells administered 4 hours after the end of CLP on the development of CLP-induced sepsis in a female C57BL/6 mouse model.\nC57BL/6 female mice, 10-13 wk old, were purchased from ENVIGO (Israel). Mice were kept in an SPF animal facility in compliance with institutional IACUC guidelines. Mice were weighed daily and monitored 2-3 times a day for clinical signs and determination of the murine sepsis score (MSS) clinical score (according to Shrum, B., Anantha, R. V., Xu, S. X., Donnelly, M., Haeryfar, S. M. M., McCormick, J. K., and Mele, T. (2014). A robust scoring system to evaluate sepsis severity in an animal model. BMC Res. Notes 7, 1-11). The endpoint was defined as total score of 15 or maximum score in one of the categories in the table.\nThe procedure was performed as briefly described below: Cecal Ligation and Puncture (CLP)—Experimental method. Briefly, the mice were operated under isoflurane anesthesia machine. Mice were anesthetized by 4% isoflurane in the chamber for about 1 minute, following anesthesia mice were transferred to the operation table and connected to the isoflurane nuzzle with 2% isoflurane. Mice were administered analgesics by sub-cutaneous (S.C.) injection of tramadol 5 mg/kg in 0.1 ml of pre-warmed 0.9% saline solution. After opening the abdomen of the mouse by a midline incision, the cecum was exposed. The cecum was ligated 75% above its distal end with a 4-0 silk suture. Following ligation, the cecum was perforated twice with a 19-gauge needle, using the through-and-through technique (introducing a needle through the cecum). […]"}, "[2]": {"tested_on": "serum cytokines/chemokines", "test": "CLP model: serum cytokines/chemokines (Luminex)", "format": "in vivo, mouse", "details": "24 h and 48 h post-CLP", "method": "At the indicated times (pre-CLP, 24 h, 48 h, and 72 h post-CLP) ˜500 μl blood was collected in a pre-labeled Eppendorf tube and left for 30 min to allow clotting. The samples were centrifuged at 1800 g (3000 rpm) for 10 min at 4° C., […]. Serum was transferred to a new pre-labeled Eppendorf tube and kept at 4° C. Excess serum was stored at −80° C. Cytokine/chemokine measurement was performed using the Luminex MAGPIX system, and analysis was performed with Milliplex software.\nCytokine/chemokine measurement was performed using the Luminex MAGPIX system, and analysis was performed with Milliplex software. NGAL and Cystatin C were tested by Luminex Multiplex kit (Millipore, MKI2MAG-P4k). All reagents were provided with the kit, and all reagents were prepared according to the manufacturers' protocols. The assays were performed in 96-well plates according to the protocol provided. Plate reading was performed with the Luminex MAGPIX system (Luminex Corp.) and analyzed using Milliplex software (Millipore). […] The raw data was measured as mean fluorescence intensity (MFI) and the concentration of each analyte for each sample was calculated using a 4- or 5-parameter logistic fit curve generated for each analyte from the 7 standards. The lower limit of quantification (LLOQ) was determined using the lowest standard that was at least 3 times above background. […]"}, "[3]": {"tested_on": "CLP-induced sepsis", "test": "CLP model: organ dysfunction analysis 24 hours post CLP (blood gas, hematology, biochemistry, lung weight, NGAL, cystatin C, C3a, C5a)", "format": "in vivo, mouse", "details": "CLP + Ertapenem mice", "method": "22-24 h after CLP, mice were weighed, assigned an MSS clinical score and sacrificed for the evaluation of organ dysfunction. Mice were bled through the retro-orbital sinus (venous blood). Naïve mice were bled under isoflurane analgesia; CLP mice were bled without analgesia due to the concern of death. 100 μl blood was collected using heparin-coated capillary tube (Paul Marienfeld, K G, Lauda-Knigshofen, Germany) and immediately tested using STAT profile prime machine (Nova Biomedical, Waltham, Mass., USA). […] was collected into EDTA tubes (MiniCollect, Greiner Bio-One, […], Austria), tubes were rotated to prevent blood clotting and kept at 4° C. Hematology analysis was performed by AML laboratories (Herzliya, Israel). About 500 μl blood was collected to a pre-labeled Eppendorf tube and left for -30 min to allow clotting. The samples were centrifuged at 1800 g (3000 rpm) for 10 min at 4° C., 200 μl serum was transferred to a new pre-labeled Eppendorf tube and kept at 4° C. Excess serum was stored in -80° C. Biochemistry analysis was performed by AML laboratories (Herzliya, Israel). […] Blood was collected to pre-labeled Eppendorf tubes and left for -30 min to allow clotting. Tubes were centrifuged at 1800 g (3000 rpm) for 10 min at 4° C. Serum was transferred to new pre-labeled Eppendorf tubes and stored at -80° C. for Luminex (NGAL and Cystatin C) and ELISA (C3a and C5a) evaluation. Cytokine/chemokine measurement was performed using the Luminex MAGPIX system, and analysis was performed with Milliplex software. NGAL and Cystatin C were tested by Luminex Multiplex kit (Millipore, […]). All reagents were provided with the kit, and all reagents were prepared according to the manufacturers' protocols. The assays were performed in 96-well plates according to the protocol provided. Plate reading was performed with the Luminex MAGPIX system (Luminex Corp.) and analyzed using Milliplex software (Millipore). […] The raw data was measured as mean fluorescence intensity (MFI) and the concentration of each analyte for each sample was calculated using a 4- or 5-parameter logistic fit curve generated for each analyte from the 7 standards. […] The calculation of the LLOQ was performed by subtracting the MFI of the background (diluent) from the MFI of the lowest standard concentration and back-calculating the concentration from the standard curve. Complement components were tested by sandwich ELISA kits: […]038) and C5a (EA100633, OriGene, Rockville, Md., USA). All reagents were provided with the kits and prepared according to the manufacturers' protocols. Assays were performed in 96-well plate according to the protocols provided. OD plate reading was performed with the Infinite F50 (TECAN, Mainnedorf, Switzerland) and analyzed using Magellan software (TECAN). The raw data was measured as 450 nm optical density (OD) and the concentration was calculated using a linear standard curve generated from 6-7 standards. The lower limit of quantification (LLOQ) was determined using the lowest standard. The calculation of the LLOQ was performed by subtracting the OD of the background (diluent) from the OD of the lowest standard concentration and back-calculating the concentration from the standard curve. […] N=40) was assigned with a clinical score, weighed, and blood samples were drawn from the retro-orbital sinus for further analyses. Mice were sacrificed and their lungs were harvested and weighed. To elucidate the effects of CLP on organ dysfunction and its correlation with the MSS clinical score, blood was tested for multiple parameters of organ dysfunction relating to five major systems: cardiovascular, respiratory, renal, hepatic, and hematological, as well as complement and several metabolites (Tables 24A and 24B)."}, "[4]": {"tested_on": "Raji cells", "test": "Flow cytometry of CD20+ Raji tumor cells in spleen, bone marrow and liver of leukemic mice", "format": "in vivo, mouse", "details": "for CD20+, Bone marrow / CD20+, Liver / CD20+, Spleen: In Vivo Experiment 023, individual mice", "method": "Mouse spleen, liver, and bone marrow were collected from sacrificed mice (following deterioration of clinical signs, as defined above) and analyzed by flow-cytometry (FACSCalibur, BD, Franklin Lakes, N.J., USA) for the presence of the Raji tumor (anti-CD20).\nUpon sacrifice, following the deterioration of clinical signs as described above, organs of interest were collected for analysis, namely the liver, spleen, and bone-marrow. Cells of these target organs were analyzed by flow cytometry for the presence of human tumor cells (Raji cells are positive for CD20).\nLiver, spleen, and bone marrow cells were collected and analyzed by flow cytometry (FACSCalibur, BD) for the presence of human CD20-FITC (Biolegend, Cat. #302206); mIgG1-FITC (Biolegend, Cat. #400110).\nMouse spleen, liver, and bone marrow cells were collected from mice who were sacrificed following clinical deterioration, as defined in the methods) and analyzed by flow cytometry (FACSCalibur, BD) for the presence of human CD20 (FITC).\nExpression (%) of CD20 tumor cells in the spleen, bone marrow, and liver, as determine by flow cytometry. Mouse spleen, liver, and bone marrow were collected from sacrificed mice (following clinical deterioration, as defined in methods) and analyzed by flow cytometry (FACSCalibur, BD) for the presence of human CD20 (FITC)."}, "[5]": {"details": "CLP mice given ertapenem, Allocetra-OTS 20×10^6 cells IV 4 h after CLP"}}, "note": "Several values for one entry are separate records, joined by “and”; a condition that tells them apart may be missing. Identical values can stand only once.", "data": [{"compound": "C[C@@H](O)[C@H]1C(=O)N2C(C(=O)O)=C(S[C@@H]3CN[C@H](C(=O)Nc4cccc(C(=O)O)c4)C3)[C@H](C)[C@H]12", "note": "[Ertapenem]", "values": [{"measurement": "final clinical score (MSS plateau value)", "setting": "[1]; CLP mice given ertapenem", "value": 14.37}, {"measurement": "median survival", "setting": "[1]; [5]", "value": 48, "unit": "h"}, {"measurement": "mortality", "setting": "[1]; [5]", "value": 93, "unit": "%"}, {"measurement": "survival rate", "setting": "[1]; Ertapenem with vehicle control, n=15", "value": 6.6, "unit": "%"}, {"measurement": "cytokine/chemokine release after sepsis induction", "setting": "[2]", "value": "no beneficial effects"}, {"measurement": "Basophils, median", "setting": "[3]", "value": "0 10^3/μl"}, {"measurement": "C3a, median", "setting": "[3]", "value": 4835, "unit": "ng/mL"}, {"measurement": "C5a, median", "setting": "[3]", "value": 1809, "unit": "ng/mL"}, {"measurement": "Chloride, median", "setting": "[3]", "value": 121.1, "unit": "mmol/L"}, {"measurement": "Cholesterol, median", "setting": "[3]", "value": 108, "unit": "mg/dL"}, {"measurement": "Eosinophils, median", "setting": "[3]", "value": "0 10^3/μl"}, {"measurement": "Glucose, median", "setting": "[3]", "value": 59.5, "unit": "mg/dL"}, {"measurement": "HCT, median", "setting": "[3]", "value": 40.9, "unit": "%"}, {"measurement": "Hemoglobin, median", "setting": "[3]", "value": 12.4, "unit": "g/dL"}, {"measurement": "Lactate, median", "setting": "[3]", "value": 13, "unit": "mg/dL"}, {"measurement": "Lymphocytes, median", "setting": "[3]", "value": "1.55 10^3/μl"}, {"measurement": "MCH, median", "setting": "[3]", "value": 14.9, "unit": "pg"}, {"measurement": "MCHC, median", "setting": "[3]", "value": 31.2, "unit": "g/dL"}, {"measurement": "MCV, median", "setting": "[3]", "value": 47.9, "unit": "fL"}, {"measurement": "Monocytes, median", "setting": "[3]", "value": "0 10^3/μl"}, {"measurement": "Neutrophils, median", "setting": "[3]", "value": "0.31 10^3/μl"}, {"measurement": "Phosphorus, median", "setting": "[3]", "value": 10.2, "unit": "mg/dL"}, {"measurement": "Platelets, median", "setting": "[3]", "value": "99 10^3/μL"}, {"measurement": "Potassium, median", "setting": "[3]", "value": 6.6, "unit": "mmol/L"}, {"measurement": "RBC, median", "setting": "[3]", "value": "8.36 10^6/μL"}, {"measurement": "Sodium, median", "setting": "[3]", "value": 154.1, "unit": "mmol/L"}, {"measurement": "WBC, median", "setting": "[3]", "value": "1.94 10^3/μL"}]}, {"compound": "Rituximab [RtX]", "values": [{"measurement": "CD20+, Bone marrow", "setting": "[4]; RtX 2 mg/kg", "value": "0.8% and 3.1% and 3%"}, {"measurement": "CD20+, Liver", "setting": "[4]; RtX 2 mg/kg", "value": "2.1% and 1.2% and 0.4%"}, {"measurement": "CD20+, Spleen", "setting": "[4]; RtX 2 mg/kg", "value": "0% (2×) and 0.7%"}, {"measurement": "CD20+, Bone marrow", "setting": "[4]; RtX 5 mg/kg", "value": "2.1% and 0.5% and 4.3% and 2.2% and 2.6%"}, {"measurement": "CD20+, Liver", "setting": "[4]; RtX 5 mg/kg", "value": "1% and 7.3% and 1.4% and 0.9% and 5.7%"}, {"measurement": "CD20+, Spleen", "setting": "[4]; RtX 5 mg/kg", "value": "0% (3×) and 0.1% (2×)"}, {"measurement": "CD20+ average tumor cell population, Bone Marrow", "setting": "[4]; rtx 2 mg/Kg", "value": "2.3 ± 1.3", "unit": "%"}, {"measurement": "CD20+ average tumor cell population, Liver", "setting": "[4]; rtx 2 mg/Kg", "value": "1.2 ± 0.8", "unit": "%"}, {"measurement": "CD20+ average tumor cell population, Spleen", "setting": "[4]; rtx 2 mg/Kg", "value": "0.2 ± 0.4", "unit": "%"}, {"measurement": "CD20+ average tumor cell population, Bone Marrow", "setting": "[4]; rtx 5 mg/Kg", "value": "1.7 ± 1.5", "unit": "%"}, {"measurement": "CD20+ average tumor cell population, Liver", "setting": "[4]; rtx 5 mg/Kg", "value": "3 ± 2.5", "unit": "%"}, {"measurement": "CD20+ average tumor cell population, Spleen", "setting": "[4]; rtx 5 mg/Kg", "value": 0, "unit": "%"}]}]}
